# Assay results reported in patent US5861476A, “Peptides and compounds that bind to the IL-1 receptor” (Affymax Technologies N.V., priority 1995, dated 1999).
# pIC50: −log10 of the molar value. Where a SMILES comes first, the peptide text is derived from it. Where no end group is shown, it is not given here. [ ]: non-standard residue; d: D form. Aze = O=C(O)[C@@H]1CCN1
# Assays:
# [1] = molecular target: T1, IL-1RtI (Homo sapiens, UniProt P14778); test: Inhibition of 125I-IL-1α binding to IL-1RtI (Example 3); details: inhibition of 125I-IL-1α binding to IL-1RtI; soluble peptide unless marked *
# T1 construct: made in house; host or cells: recombinant host cells (one form soluble from baculovirus transformed host cells; another PIG-tailed and cleaved from the cell surface)
# T1 sequence (P14778 18-336): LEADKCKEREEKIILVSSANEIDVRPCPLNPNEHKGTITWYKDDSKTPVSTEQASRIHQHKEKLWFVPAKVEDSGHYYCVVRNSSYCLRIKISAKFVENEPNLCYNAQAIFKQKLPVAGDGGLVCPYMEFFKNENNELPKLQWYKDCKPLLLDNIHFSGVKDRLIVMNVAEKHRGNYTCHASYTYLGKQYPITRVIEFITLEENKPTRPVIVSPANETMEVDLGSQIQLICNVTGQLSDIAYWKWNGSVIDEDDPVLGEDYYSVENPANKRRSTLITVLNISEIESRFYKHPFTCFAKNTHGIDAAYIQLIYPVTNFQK
# Summary of the method: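 Competition with 90 pM 125I-IL-1α was run in duplicate for 2 h at 4 °C in HEPES-buffered RPMI with 1% BSA, pH 7.2-7.3, against either antibody-captured truncated receptor or cells with full-length IL-1RtI. Gamma counting of NaOH-detached material gave approximate IC50; high-affinity peptides used 24-well format.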
# [2] = molecular target: T2, IL-1 induced down-regulation of the epidermal growth factor (EGF) receptor in normal human dermal fibroblasts (NHDF) (Homo sapiens, UniProt P14778); test: Epidermal Growth Factor Receptor Down Regulation Assay; type: cell-based; details: 37° C., in the presence of IL-1α, 125I-labeled EGF binding, read-out: IC50 (approximate concentration which blocked 50% of the IL-1 induced down regulation of the EGF receptor)
# T2 sequence (P14778 18-569): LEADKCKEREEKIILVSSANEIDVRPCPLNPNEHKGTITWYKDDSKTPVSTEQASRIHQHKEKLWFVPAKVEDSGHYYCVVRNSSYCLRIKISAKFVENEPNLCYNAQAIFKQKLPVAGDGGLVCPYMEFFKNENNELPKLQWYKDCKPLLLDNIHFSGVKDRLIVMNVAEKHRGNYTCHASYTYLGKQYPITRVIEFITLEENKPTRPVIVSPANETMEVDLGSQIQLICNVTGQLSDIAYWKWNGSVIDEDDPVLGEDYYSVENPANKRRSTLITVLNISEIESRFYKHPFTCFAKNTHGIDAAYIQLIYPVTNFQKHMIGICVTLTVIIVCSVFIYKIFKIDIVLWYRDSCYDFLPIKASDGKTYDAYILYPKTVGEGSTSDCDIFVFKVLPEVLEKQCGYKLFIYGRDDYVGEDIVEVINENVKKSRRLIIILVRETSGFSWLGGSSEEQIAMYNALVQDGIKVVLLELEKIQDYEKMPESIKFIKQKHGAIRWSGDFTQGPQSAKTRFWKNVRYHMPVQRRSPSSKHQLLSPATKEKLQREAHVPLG
# Source text: The protocol set forth in Bird and Saklatvala (1989) J. Immunol. […] This assay examines the effect of the compounds of the invention on the IL-1 induced down-regulation of the epidermal growth factor (EGF) receptor as measured by the binding of ^125 I-labeled EGF to its receptor in normal human dermal fibroblasts (NHDF). […] The table below lists the approximate concentration of representative peptides of the invention which blocked 50% of the IL-1 induced down regulation of the EGF receptor. IC50 values are indicated symbolically by the symbols "-", "+", and "++". […] Those peptides which give IC50 values of less than or equal to 100 μM are given a "+", while those which give IC50 values of 500 nM or less are indicated with a "++". Those peptides which give IC50 values at or near the cutoff point for a particular symbol are indicated with a hybrid, e.g. "±". Those peptides for which IC50 values were not determined are listed as "N.D".
# [3] = molecular target: T3, IL-1 induced E-selectin in HUVEC cells (Homo sapiens, UniProt P14778); test: Peptide Effects on IL-1 Induced E-Selectin (HUVEC Cells); type: cell-based; details: 120 pM IL-1α, read-out: IC50 (concentration required to inhibit 50% of IL-1 induced E-selectin expression)
# T3 sequence (P14778 18-569): T2 sequence (P14778 18-569)
# Description: The compounds of the present invention were assayed for their ability to inhibit the expression of IL-1 induced E-selectin in HUVEC cells (human umbilical vein endothelial cells). HUVEC cells are grown to confluency in the wells of a 24-well microtiter plate. The compounds were serially diluted in DMEM/F12+0.1% BSA ("SFM"with 120 pM IL-1α. The cells were washed and then incubated with IL-1α and the compound to be tested for 15 minutes. The cells were again washed and incubated in SFM for 4 hours. The cells were washed and incubated with anti-selectin antibody for 30 minutes. Following antibody incubation, the cells were incubated with ^125 I Protein A and washed. The amount of ^125 I bound to the cells was then determined. The concentration of compounds required to inhibit 50% of IL-1 induced E-selectin expression is shown below.
pIC50 [1],pIC50 [2],pIC50 [3],Compound
≥ 6.30,6.30,≥ 6.30,CC(=O)N[C@@H](Cc1ccccc1)C(=O)N[C@@H](CCC(=O)O)C(=O)N[C@@H](Cc1c[nH]c2ccccc12)C(=O)N[C@H](C(=O)N1CCC[C@H]1C(=O)NCC(=O)N[C@@H](Cc1c[nH]c2ccccc12)C(=O)N[C@@H](Cc1ccc(O)cc1)C(=O)N[C@@H](CCC(N)=O)C(=O)N1CC[C@H]1C(=O)N[C@@H](Cc1ccc(O)cc1)C(N)=O)[C@@H](C)O [AcFEWTPGWYQJY--NH2] (Ac-FEWTPGWYQ[Aze]Y-NH2)
≥ 6.30,≥ 4.00,≥ 6.30,CC(=O)N[C@@H](Cc1ccccc1)C(=O)N[C@@H](CCC(=O)O)C(=O)N[C@@H](Cc1c[nH]c2ccccc12)C(=O)N[C@H](C(=O)N1CCC[C@H]1C(=O)NCC(=O)N[C@@H](Cc1ccc(O)cc1)C(=O)N[C@@H](Cc1c[nH]c2ccccc12)C(=O)N[C@@H](CCC(N)=O)C(=O)N1CC[C@H]1C(=O)N[C@@H](Cc1ccc(O)cc1)C(N)=O)[C@@H](C)O [AcFEWTPGYWQJY--NH2] (Ac-FEWTPGYWQ[Aze]Y-NH2)
–,≥ 4.00,≥ 6.30,CC(=O)N[C@@H](Cc1ccccc1)C(=O)N[C@@H](CCC(=O)O)C(=O)N[C@@H](Cc1c[nH]c2ccccc12)C(=O)N[C@H](C(=O)N1CCC[C@H]1C(=O)N[C@H](C)C(=O)N[C@@H](Cc1c[nH]c2ccccc12)C(=O)N[C@@H](Cc1ccc(O)cc1)C(=O)N[C@@H](CCC(N)=O)C(=O)N1CC[C@H]1C(=O)N[C@@H](Cc1ccc(O)cc1)C(N)=O)[C@@H](C)O [AcFEWTPaWYQJY--NH2] (Ac-FEWTP[dA]WYQ[Aze]Y-NH2)
–,≥ 4.00,≥ 6.30,CC(=O)N[C@@H](Cc1ccccc1)C(=O)N[C@@H](CCC(=O)O)C(=O)N[C@@H](Cc1c[nH]c2ccccc12)C(=O)N[C@H](C(=O)N1CCC[C@H]1C(=O)N[C@H](C)C(=O)N[C@@H](Cc1ccc(O)cc1)C(=O)N[C@@H](Cc1c[nH]c2ccccc12)C(=O)N[C@@H](CCC(N)=O)C(=O)N1CC[C@H]1C(=O)N[C@@H](Cc1ccc(O)cc1)C(N)=O)[C@@H](C)O [AcFEWTPaYWQJY--NH2] (Ac-FEWTP[dA]YWQ[Aze]Y-NH2)
–,≥ 4.00,≥ 6.30,CC(=O)N[C@@H](Cc1ccccc1)C(=O)N[C@@H](CCC(=O)O)C(=O)N[C@@H](Cc1c[nH]c2ccccc12)C(=O)N[C@H](C(=O)N1CCC[C@H]1C(=O)N[C@H](C)C(=O)N[C@@H](Cc1ccc(O)cc1)C(=O)N[C@@H](Cc1ccc(O)cc1)C(=O)N[C@@H](CCC(N)=O)C(=O)N1CC[C@H]1C(=O)N[C@@H](Cc1ccc(O)cc1)C(N)=O)[C@@H](C)O [AcFEWTPaYYQJY--NH2] (Ac-FEWTP[dA]YYQ[Aze]Y-NH2)
–,≥ 6.30,≥ 6.30,CC(C)C[C@H](NC(=O)[C@@H]1CCCN1C(=O)[C@H](CC(C)C)NC(=O)[C@H](C)NC(=O)[C@H](Cc1ccc(O)cc1)NC(=O)[C@@H]1CCN1C(=O)[C@H](CCC(N)=O)NC(=O)[C@H](Cc1c[nH]c2ccccc12)NC(=O)[C@H](Cc1ccc(O)cc1)NC(=O)CNC(=O)[C@@H]1CCCN1C(=O)[C@@H](NC(=O)[C@H](Cc1c[nH]c2ccccc12)NC(=O)[C@H](CCC(=O)O)NC(=O)[C@@H](N)Cc1ccccc1)[C@@H](C)O)C(=O)O [FEWTPGYWQJYALPL] (H-FEWTPGYWQ[Aze]YALPL-OH)
–,≥ 6.30,≥ 6.30,CC(C)C[C@H](NC(=O)[C@@H]1CCCN1C(=O)[C@H](CC(C)C)NC(=O)[C@H](C)NC(=O)[C@H](Cc1ccc(O)cc1)NC(=O)[C@@H]1CCN1C(=O)[C@H](CCC(N)=O)NC(=O)[C@H](Cc1ccc(O)cc1)NC(=O)[C@H](Cc1ccc(O)cc1)NC(=O)CNC(=O)[C@@H]1CCCN1C(=O)[C@@H](NC(=O)[C@H](Cc1c[nH]c2ccccc12)NC(=O)[C@H](CCC(=O)O)NC(=O)[C@@H](N)Cc1ccccc1)[C@@H](C)O)C(=O)O [FEWTPGYYQJYALPL] (H-FEWTPGYYQ[Aze]YALPL-OH)
≥ 6.30,≥ 6.30,≥ 6.30,TANVSSFEWTPGYWQPYALPL
